Measurements: EP0994871B1, “NOVEL SUBSTITUTED NAPHTHOPYRANS” (TRANSITIONS OPTICAL, INC., priority 1997, dated 1998)

Legend:
[1] = Photochromic response of polymeric test squares on an optical bench; assay type: physicochemical; conditions: for ΔOD@ SATURATION: UV exposure continued for 20 minutes; for ΔOD@ SATURATION / ΔOD/MIN SENSITIVITY: test squares, 75°F (23.9°C); for ΔOD/MIN SENSITIVITY: measured over the first five (5) seconds of UV exposure, expressed on a per minute basis; for Bleach (T1/2): time for absorbance of the activated form in the test squares to reach one half the highest absorbance at room temperature (75°F, 23.9°C) after removal of activating light
Description: Testing was done with the photochromic naphthopyrans of the Examples incorporated into polymeric samples by the following method. The quantity of naphthopyran calculated to yield a 1.5 times 10^-3 molal solution was added to a flask containing 50 grams of a monomer blend of 4 parts ethoxylated bisphenol A dimethacrylate (BPA 2EO DMA), 1 part poly(ethylene glycol) 600 dimethacrylate, and 0.033 weight percent 2,2'-azobis(2-methyl propionitrile) (AIBN). The naphthopyran was dissolved into the monomer blend by stirring and gentle heating, if necessary. After a clear solution was obtained, it was poured into a flat sheet mold having the interior dimensions of 2.2 mm x 6 inches (15.24 cm) x 6 inches (15.24 cm). The mold was sealed and placed in a horizontal air flow, programmable oven set to increase the temperature from 40°C. to 95°C. over a 5 hour interval, hold the temperature at 95°C. for 3 hours and then lower it to 60°C. for at least 2 hours before the end of the curing cycle. After the mold was opened, the polymer sheet was cut using a diamond blade saw into 2 inch (5.1 centimeters) test squares.
The photochromic test squares prepared in Part A were tested for photochromic response rates on an optical bench. Prior to testing on the optical bench, the photochromic test squares were exposed to 365 nanometer ultraviolet light for about 15 minutes to activate the photochromic compounds and then placed into a 76°C oven for about 15 minutes to bleach or inactivate the photochromic compounds. The test squares were then cooled to room temperature, exposed to fluorescent room lighting for at least 2 hours and then kept covered for at least 2 hours prior to testing on an optical bench maintained at 75°F (23.9°C). The bench was fitted with a 150 watt Xenon arc lamp, a remote controlled shutter, a copper sulfate bath acting as a heat sink for the arc lamp, a Schott WG-320 nm cut-off filter which removes short wavelength radiation; neutral density filter(s) and a sample holder in which the square to be tested was inserted. A collimated beam of light from a tungsten lamp was passed through the square at a small angle normal to the square. After passing through the square, the light from the tungsten lamp was directed through a photopic filter attached to a detector. The photopic filter passes wavelengths such that the detector mimics the response of the human eye. The output signals from the detector(s) were processed by a radiometer.
Change in optical density (ΔOD) was determined by inserting a test square in the bleached state into the sample holder, adjusting the transmittance scale to 100%, opening the shutter from the Xenon lamp to provide ultraviolet radiation to change the test square from the bleached state to an activated (i.e., darkened) state, measuring the transmittance in the activated state, and calculating the change in optical density according to the formula A OD=log(100/%Ta) where %Ta is the percent transmittance in the activated state and the logarithm is to the base 10.
(§1) The Δ OD/Min, which represents the sensitivity of the photochromic compound's response to UV light, was measured over the first five (5) seconds of UV exposure, then expressed on a per minute basis. The saturation optical density (OD) was taken under identical conditions as the A OD/Min, except UV exposure was continued for 20 minutes for the examples in Table 1. The lambda max reported in Table 1 is the wavelength in the visible spectrum at which the maximum absorption of the activated (colored) form of the photochromic compound in a diethylene glycol bis(allyl carbonate) composition occurs. The Bleach Rate (T 1/2) is the time interval in seconds for the absorbance of the activated form of the naphthopyran in the test squares to reach one half the highest absorbance at room temperature (75°F, 23.9°C) after removal of the source of activating light.

[2] = Lambda max of the activated (colored) form in a diethylene glycol bis(allyl carbonate) composition; assay type: physicochemical; conditions: wavelength in the visible spectrum of maximum absorption of the activated (colored) form in a diethylene glycol bis(allyl carbonate) composition
Description: as §1

Row | Structure (SMILES) | ΔOD@ SATURATION [1] | ΔOD/MIN SENSITIVITY [1] | Bleach (T1/2) [1] | LAMBDA MAX (VISIBLE) [2]
1 | COc1ccc(C2(c3ccc(OC)cc3)C=Cc3c(-c4cccn4C)c(OC(C)=O)c4ccccc4c3O2)cc1 [Example 1, 2,2-bis(4-methoxyphenyl)-5-(N-methylpyrrol-2-yl)-6-acetoxy-2H-naphtho[1,2-b]pyran] | 0.25 | 0.16 | 1.23 min | 513 nm
2 | COc1ccc(C2(c3ccc(OC)cc3)C=Cc3c(-c4ccc(OC)cc4OC)c(OC(C)=O)c4ccccc4c3O2)cc1 [Example 2, 2,2-bis(4-methoxyphenyl)-5-(2,4-dimethoxyphenyl)-6-acetoxy-2H-naphtho[1,2-b]pyran] | 0.55 | 0.15 | 4.13 min | 511 nm
3 | COc1ccc(C2(c3ccc(OC)cc3)C=Cc3c(Sc4ccccc4)c(O)c4ccccc4c3O2)cc1 [Example 3, 2,2-bis(4-methoxyphenyl)-5-phenylthio-6-hydroxy-2H-naphtho[1,2-b]pyran] | 1.76 | 0.34 | >10 min | 516 nm
4 | COc1ccc(C2(c3ccc(OC)cc3)C=Cc3c(Sc4ccccc4)c(OC(C)=O)c4ccccc4c3O2)cc1 [Example 4, 2,2-bis(4-methoxyphenyl)-5-phenylthio-6-acetoxy-2H-naphtho[1,2-b]pyran] | 0.23 | 0.22 | 0.7 min | 516 nm
5 | COc1ccc(C2(c3ccc(OC)cc3)C=Cc3c(Cl)c(OC(C)=O)c4ccccc4c3O2)cc1 [Example 5, 2,2-bis(4-methoxyphenyl)-5-chloro-6-acetoxy-2H-naphtho[1,2-b]pyran] | 0.07 | 0.08 | 0.9 min | 462 nm
6 | COc1ccc(C2(c3ccc(OC)cc3)C=Cc3c(C)c(OC(C)=O)c4ccccc4c3O2)cc1 [Example 6, 2,2-bis(4-methoxyphenyl)-5-methyl-6-acetoxy-2H-naphtho[1,2-b]pyran] | 0.37 | 0.14 | 2 min | 506 nm
7 | Oc1c(Sc2ccccc2)c2c(c3ccccc13)OC1(C=C2)C2CC3CC(C2)CC1C3 (stereo not drawn) [Example 7, 2,2'-spiroadamantylene-5-phenylthio-6-hydroxy-2H-naphtho[1,2-b]pyran] | 0.47 | 0.15 |  | 462 nm
8 | CC(=O)Oc1c(Sc2ccccc2)c2c(c3ccccc13)OC1(C=C2)C2CC3CC(C2)CC1C3 (stereo not drawn) [Example 8, 2,2'-spiroadamantylene-5-phenylthio-6-acetoxy-2H-naphtho[1,2-b]pyran] | 0.04 | 0.10 |  | 459 nm
9 | COc1c(C)c2c(c3ccccc13)OC1(C=C2)C2CC3CC(C2)CC1C3 (stereo not drawn) [Example 9, 2,2'-spiroadamantylene-5-methyl-6-methoxy-2H-naphtho[1,2-b]pyran] | 0.17 | 0.12 |  | 462 nm
10 | COc1ccc(C2(c3ccc(OC)cc3)C=Cc3c(C(O)(c4ccccc4)c4ccccc4)c(O)c4ccccc4c3O2)cc1 [Example 10, 2,2-bis(4-methoxyphenyl)-5-diphenylmethylol-6-hydroxy-2H-naphtho[1,2-b]pyran] | 0.32 | 0.05 |  | 482 nm
